Experimental data taken from US20260242839A1, “GLYCOSIDE PRODUCT BIOSYNTHESIS AND RECOVERY” (Manus Bio Inc., priority 2023, published 2026).

B1: SEQ ID NO: 73: HvUGT_B3 (Hordeum vulgare subsp. Vulgare) (protein)
chain: MAEANDGGKMHVVMLPWLAFGHVLPFTEFAKRVARQGHRVTLLSAPRNTRRLIDIPPGLAGLIRVVHVPLPRVDGLPEHAEATIDLPSDHLRPCLRRAFDAAFERELSRLLQEEAKPDWVLVDYASYWAPTAAARHGVPCAFLSLFGAAALSFFGTPETLLGIGRHAKTEPAHLTVVPEYVPFPTTVAYRGYEARELFEPGMVPDDSGVSEGYRFAKTIEGCQLVGIRSSSEFEPEWLRLLGELYRKPVIPVGLFPPAPQDDVAGHEATLRWLDGQAPSSVVYAAFGSEVKLTGAQLQRIALGLEASGLPFIWAFRAPTSTETGAASGGLPEGFEERLAGRGVVCRGWVPQVKFLAHASVGGFLTHAGWNSIAEGLAHGVRLVLLPLVFEQGLNARNIVDKNIGVEVARDEQDGSFAAGDIAAALRRVMVEDEGEGFGAKVKELAKVFGDDEVNDQCVREFLMHLSDHSKKNQGQD
modifications: Hordeum vulgare

Columns and labels:
[1] = maximum solubility of RebM in fermentation broth; type: physicochemical
Method: Fermentation broth was held at a constant temperature of 70° C. and subjected to different treatments as described in Table 7. RebM was slowly added with constant stirring to determine the maximum solubility of RebM.

[2] = estimated; Prakash et al. 2014; cited from earlier work
Mog. IIE or Mog. IE = assay: branched glycosylation reactions by cells expressing UGT enzymes; type: cell-based, E. coli; conditions: Mog. IIE or Mog. IE fed; 37° C., 48 hr; LC-MS/MS
Method: Mog. IIE or Mog. IE was fed to cells expressing various UGT enzymes. Reactions were incubated at 37° C. for 48 hr. Products were quantified by LC-MS/MS with authentic standards of each compound. “Indirect” evidence means that consumption of substrate was observed.

Mog. I-E = assay: production of Mog. II-A2 from Mog. I-E; type: cell-based, E. coli; conditions: 37° C., 48 hr; FIG. 20
Method: II-A2. Mog. I-E was fed in vitro. In the experiment, engineered E. coli strains (chassis strain) expressing UGT enzyme SEQ ID NO: 73 were incubated at 37° C. for 48 hr. Products were quantified by LC-MS/MS with authentic standards of each compound. […] IE to Mog. II-A2.

Molecule	RebM solubility ([1]; pH 3.5, 70.8 ° C., no small molecule enhancer) [mg/mL]	RebM solubility ([1]; pH 7, 70.8 ° C., Glycerol 0.5 wt %) [mg/mL]	RebM solubility ([1]; pH 7, 70.8 ° C., no small molecule enhancer) [mg/mL]	RebM solubility ([1]; pH 11.6, 70.8 ° C., 1,3-Propanediol 0.5 wt %) [mg/mL]	RebM solubility ([1]; pH 11.6, 70.8 ° C., Glycerol 0.5 wt %) [mg/mL]	times more potent than sucrose [2]	C3 1-2 (Mog. IIE or Mog. IE)	C3 1-6 (Mog. IIE or Mog. IE)	C24 1-2 (Mog. IIE or Mog. IE)	C24 1-6 (Mog. IIE or Mog. IE)	bioconversion of Mog. IE to Mog. II-A2 (Mog. I-E)
C=C1C[C@@]23CC[C@H]4[C@@](C)(CCC[C@@]4(C)C(=O)O[C@@H]4O[C@H](CO)[C@@H](O)[C@H](O[C@@H]5O[C@H](CO)[C@@H](O)[C@H](O)[C@H]5O)[C@H]4O[C@@H]4O[C@H](CO)[C@@H](O)[C@H](O)[C@H]4O)[C@@H]2CC[C@]1(O[C@@H]1O[C@H](CO)[C@@H](O)[C@H](O[C@@H]2O[C@H](CO)[C@@H](O)[C@H](O)[C@H]2O)[C@H]1O[C@@H]1O[C@H](CO)[C@@H](O)[C@H](O)[C@H]1O)C3 [RebM, rebaudioside M]	68.9	119.0	29.9	151.3	151.3	200-350 times	–	–	–	–	–
B1	–	–	–	–	–	–	No	Yes	No	Yes	able to catalyze bioconversion of Mog. IE to Mog. II-A2
